For the assay, the target named is P450 19A1 (aromatase) (Homo sapiens, UniProt P11511). Kind of assay: competitive ABPP: blockade of probe […] labeling, in-gel fluorescence. It counts as biochemical.
Chain of P450 19A1 (aromatase) (P16435 2-677): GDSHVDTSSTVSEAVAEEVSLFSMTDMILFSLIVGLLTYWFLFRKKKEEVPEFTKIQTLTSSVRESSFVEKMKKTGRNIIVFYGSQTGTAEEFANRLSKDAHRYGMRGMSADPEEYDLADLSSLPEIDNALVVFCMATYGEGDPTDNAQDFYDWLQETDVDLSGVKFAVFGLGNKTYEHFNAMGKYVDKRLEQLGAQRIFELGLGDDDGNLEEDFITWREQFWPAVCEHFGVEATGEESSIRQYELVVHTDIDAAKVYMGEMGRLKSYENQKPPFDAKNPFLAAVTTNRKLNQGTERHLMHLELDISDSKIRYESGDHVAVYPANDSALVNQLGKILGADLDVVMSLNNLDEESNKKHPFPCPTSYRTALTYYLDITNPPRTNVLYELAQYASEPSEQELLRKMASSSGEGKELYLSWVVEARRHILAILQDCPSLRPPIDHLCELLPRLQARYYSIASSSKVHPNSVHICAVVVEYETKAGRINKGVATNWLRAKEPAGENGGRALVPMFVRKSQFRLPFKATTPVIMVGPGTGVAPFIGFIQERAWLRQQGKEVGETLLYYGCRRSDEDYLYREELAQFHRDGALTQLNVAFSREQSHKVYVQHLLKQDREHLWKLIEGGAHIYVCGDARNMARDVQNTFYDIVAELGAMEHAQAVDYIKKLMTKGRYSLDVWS
Chain of P450 19A1 (aromatase) (P11511 whole entry): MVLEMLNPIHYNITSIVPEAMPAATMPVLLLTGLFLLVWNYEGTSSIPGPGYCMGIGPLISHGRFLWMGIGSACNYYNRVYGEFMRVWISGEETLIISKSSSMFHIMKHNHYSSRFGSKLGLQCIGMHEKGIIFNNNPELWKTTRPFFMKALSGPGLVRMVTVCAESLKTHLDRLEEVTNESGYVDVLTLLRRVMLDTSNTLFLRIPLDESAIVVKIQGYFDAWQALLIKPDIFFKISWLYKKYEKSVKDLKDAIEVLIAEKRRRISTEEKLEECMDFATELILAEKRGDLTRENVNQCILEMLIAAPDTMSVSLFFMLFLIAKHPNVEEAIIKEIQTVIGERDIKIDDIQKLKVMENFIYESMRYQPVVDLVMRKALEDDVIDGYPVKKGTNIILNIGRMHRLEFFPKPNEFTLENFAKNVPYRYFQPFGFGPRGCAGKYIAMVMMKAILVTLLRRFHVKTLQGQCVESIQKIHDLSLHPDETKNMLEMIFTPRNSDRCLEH

Turning to `C[C@]12CCC(=O)C(O)=C1CC[C@@H]1[C@@H]2CC[C@]2(C)C(=O)CC[C@@H]12` [formestane], the IC50 (usually the concentration that gives 50% inhibition) was 430 nM.

Values taken from publication PMC2737065 (Journal of the American Chemical Society, 2009).
